Test results published in ChEMBL document CHEMBL3638769, “Inhibitors of STAT3” (2015).

The molecules below were run against Signal transducer and activator of transcription 3 (Homo sapiens, UniProt P40763) (assay: EMSA Based Assay: A screening process evaluated in vitro disruption of STAT3(dimer)-DNA formation through a previously published EMSA based assays, giving a valuable insight into the inhibitor's mode of action against the STAT3 homo-dimer.).
Chain of Signal transducer and activator of transcription 3 (P40763 whole entry): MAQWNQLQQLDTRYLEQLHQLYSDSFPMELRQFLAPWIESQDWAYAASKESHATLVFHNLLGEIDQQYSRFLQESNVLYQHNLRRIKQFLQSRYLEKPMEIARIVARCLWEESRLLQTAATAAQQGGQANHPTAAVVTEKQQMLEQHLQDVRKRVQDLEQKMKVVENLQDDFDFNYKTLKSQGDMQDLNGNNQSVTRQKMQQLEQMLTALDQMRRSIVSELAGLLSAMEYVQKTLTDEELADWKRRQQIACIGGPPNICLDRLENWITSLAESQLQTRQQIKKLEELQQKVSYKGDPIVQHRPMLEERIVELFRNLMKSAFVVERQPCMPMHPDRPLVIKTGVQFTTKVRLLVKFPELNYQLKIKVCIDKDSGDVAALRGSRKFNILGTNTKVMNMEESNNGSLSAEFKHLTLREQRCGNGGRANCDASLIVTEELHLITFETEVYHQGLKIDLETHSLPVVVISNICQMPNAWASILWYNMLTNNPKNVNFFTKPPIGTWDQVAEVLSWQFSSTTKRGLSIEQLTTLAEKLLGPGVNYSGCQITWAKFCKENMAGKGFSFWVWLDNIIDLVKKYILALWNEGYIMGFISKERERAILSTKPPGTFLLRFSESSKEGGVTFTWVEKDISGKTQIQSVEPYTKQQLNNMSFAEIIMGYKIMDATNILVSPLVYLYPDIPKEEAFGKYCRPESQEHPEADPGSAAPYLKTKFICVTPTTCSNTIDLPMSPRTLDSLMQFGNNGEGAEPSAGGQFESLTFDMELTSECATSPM

| Structure (SMILES) | IC50 |
| --- | --- |
| CCCCCCNC(=O)c1nc(-c2ccccc2)sc1Cc1ccc(OP(=O)(O)O)cc1 | 150 µM |
| O=C(Nc1ccc(C2CCCCC2)cc1)c1nc(-c2cccc3ccccc23)sc1Cc1ccc(OP(=O)(O)O)cc1 | 350 µM |
| O=C(Nc1ccc(C2CCCCC2)cc1)c1nc(-c2cccc3ccccc23)oc1Cc1ccc(OP(=O)(O)O)cc1 | 255 µM |
| O=C(Nc1ccc(C2CCCCC2)cc1)c1nc(-c2ccccc2)oc1Cc1ccc(O)cc1 | > 1000 µM |
| CCCCCCNC(=O)c1nc(-c2ccccc2)oc1Cc1ccc(OP(=O)(O)O)cc1 | > 1000 µM |
| CCCCCCNC(=O)c1nc(-c2cccc3ccccc23)oc1Cc1ccc(OP(=O)(O)O)cc1 | 58 µM |
| CCCCCCNC(=O)c1nc(-c2cccc3ccccc23)sc1Cc1ccc(OP(=O)(O)O)cc1 | 25 µM |
| O=C(Nc1ccc(C2CCCCC2)cc1)c1nc(-c2ccccc2)oc1Cc1ccc(OP(=O)(O)O)cc1 | 33 µM |
| O=C(O)c1nc(-c2ccccc2)oc1Cc1ccc(OP(=O)(O)O)cc1 | > 1000 µM |
| O=C(Nc1ccc(C2CCCCC2)cc1)c1nc(-c2ccccc2)sc1Cc1ccc(OP(=O)(O)O)cc1 | 775 µM |
